{"source": "patent US6528685B2", "about": "(Teva Pharmaceutical Industries, Ltd., priority 1994, dated 2003)", "key": {"[1]": {"system": "hypoxic rat", "test": "Amphetamine-induced stereotype behavior in hypoxic rat, Experiment 2A", "format": "in vivo", "conditions": "hypoxic group, with respect to hypoxia and amphetamine control", "experimental": "Wistar male rats, 15-19 month-old, were exposed to a single hypoxic episode as described above. […] Rats pretreated for 29 days with daily doses of the test drugs (0.5 mg/kg), received a sub-cutaneous (s.c.) injection of D-amphetamine sulfate at a dose of 0.5 mg/kg. D-amphetamine is known to cause an enhancement of the effects of CNS dopamine by a mechanism involving dopamine release, and blockage of its uptake and its metabolism by MAO. The behavioral manifestation of amphetamine action is a stereotypic pattern of lateral head movements. Counts of lateral head movements were taken over two successive intervals of 1 min each, 45-60 min after the injection of amphetamine and then averaged."}, "[2]": {"system": "hypoxic rat", "test": "α-MpT-induced hypokinesia in hypoxic rat, Experiment 1A", "format": "in vivo", "conditions": "for Locomotor activity after α-MpT treatment, recorded as total movements / Locomotor activity after αMpT treatment, recorded as big movements: hypoxic rats, 0.5 mg/kg/day by gavage 70-80 days; for Locomotor activity after αMpT treatment, recorded as big movements: Mean ± SEM", "experimental": "(§1) Wistar male rats, 15-19 month-old, were exposed to a single hypoxic episode which is assumed to decrease the level of dopamine in the brain. […] The drugs were administered by gavage, using a special syringe equipped with rounded tip that could be directed into the stomach. The dose was contained in 0.3-0.5 mL of distilled water. The rats were pretreated for 70-80 days with daily doses of the test drugs and received intra-peritoneal (i.p.) α-MpT (α-methyl-p-tyrosine) at a dose of 100 mg/kg in 0.3-0.5 mL saline. Controls received saline. α-MpT is assumed to inhibit the formation of L-Dopa from tyrosine and, consequently the formation of dopamine itself. Lack of central dopamine is expressed as hypokinesia. Following the injection of α-MpT, motor activity was recorded for the duration of 10 hours. Locomotion scores were taken in seven fully-computerized cages (26×25 cm) having a grid of infra-red beams at 4 cm-intervals.\n(§2) Crossing of a beam initiated an electric signal which was fed into a computer. The number of crossings over a given period provided a measure of locomotion.\n(§3) The records gave two data categories: (a) “small movements” originating in stationary activities such as grooming and scratching and (b) “big movements” originating in ambulation and recorded as the simultaneous crossing of more than two beams. “Total movements” include both categories.\n(§4) Counts of motor activity in the presence of α-MpT were related as percent with respect to counts in its absence in the corresponding control group (unlesioned or hypoxia-lesioned). Motor activity counts of drug-treated rats were related to the hypoxia saline-treated as 100%. All behavioral tests were performed 90-120 min. after administration of the last dose of the test compound."}, "[3]": {"system": "hypoxic rat", "test": "α-MpT-induced hypokinesia in hypoxic rat, Experiment 1B", "format": "in vivo", "conditions": "hypoxic rats, 0.3 mg/Kg daily i.p. 21 days; for Locomotor activity after α-MpT treatment, recorded as big movements: Mean ± SEM", "experimental": "as §1, §2, §3, §4\nThe procedure of Experiment 1A was repeated with the following changes:\n(1) Animal: 11-14 month-old rats.\nThe drugs were given i.p.\n(3) Duration of the treatment: 21 days.\n(4) Dose of α-MpT: 70 mg/Kg."}, "[4]": {"system": "hypoxia-lesioned rats", "test": "Water maze working memory test, Experiment 3B", "format": "in vivo, rat", "conditions": "hypoxia-lesioned rats; 0.5 mg/kg/day 60 days; ± SEM", "from_the_text": "The apparatus used consists of a circular water tank 160 cm in diameter filled with water to a depth of 38 cm. The water was made cloudy by the addition of milk powder. A clear Plexiglass 15 cm platform, supported by a movable stand rest on the bottom of the tank was submerged to a depth of 2 cm from the water surface. Normally a swimming rat cannot perceive the location of the platform but it may recall it from a previous experience and training, unless it suffers from some memory impairment. The time taken to locate the platform is measured in seconds and referred to as the latency. During the experiment all orientational cues such as ceiling lights etc. remained unchanged. Longer latencies are observed with rats with some impairment to their memory.\nEach rat was given two trails a day for four days, entering the pool from the same point of entry each day. The position of the platform was changed daily to one of four predetermined positions. Each rat was tested twice each day over the four days, referred to as runs 1 and 2 on sessions I-IV. Initially the rat was placed on the platform for 60 seconds. It was then removed and placed at the point of entry and allowed a maximum of 120 seconds to locate the platform (run 1). The second run for that day followed 60 seconds later (run 2). In the second run the rat is expected to find the platform much sooner, having benefitted from its earlier experience. […] The average latency of run 1 in four sessions on four different days was then related to the corresponding parameter of run 2. The smaller the ratio of […], the better the short range learning score.\nTable 8. […] The data are the latencies in seconds±SEM that it took a given group to locate a submerged and invisible platform the location of which was shifted from one session to the other. The time interval between sessions was one day, and that between successive runs was 60 seconds. (n=7-8 rats per group)"}, "[5]": {"system": "hypoxic rat", "test": "Passive avoidance test in hypoxic rat, Experiment 3A", "format": "in vivo", "conditions": "hypoxic rats", "experimental": "Wistar male rats, 15-19 month-old, were exposed to a single hypoxic episode as described above. […] The passive avoidance test was performed on day 13 after initiation the drug treatment. The apparatus consisted of a lit chamber that can be separated from a dark chamber by a sliding door. At training, a rat is placed in the lit chamber for 30 seconds, then the door is opened. The rat moves to the dark chamber after a short delay—the latency, that is recorded. Upon entry into the dark chamber, the door is shut closed and a 0.3-mA footshock is delivered for 3 seconds by a Grass S-88 stimulator. Retention of the experience is determined after 48 hours by repeating the test and recording the latency to an arbitrary maximum of 300 seconds. Longer latencies are ascribed to retention of memory and improved cognition."}}, "data": [{"smiles": "C#CCN(C)[C@H](C)Cc1ccccc1", "note": "[deprenyl]", "values": [{"measurement": "potentiation of stereotypic behavior induced by amphetamine, in words", "setting": "[1]", "value": "did not potentiate"}, {"measurement": "Locomotor activity after α-MpT treatment, recorded as total movements", "setting": "[2]; hour 1 after α-MpT", "value": "88 ± 23", "unit": "%"}, {"measurement": "Locomotor activity after αMpT treatment, recorded as big movements", "setting": "[2]; hour 1 after α-MpT", "value": "61 ± 15", "unit": "%"}, {"measurement": "Locomotor activity after α-MpT treatment, recorded as total movements", "setting": "[2]; hour 2 after α-MpT", "value": "131 ± 30", "unit": "%"}, {"measurement": "Locomotor activity after αMpT treatment, recorded as big movements", "setting": "[2]; hour 2 after α-MpT", "value": "103 ± 22", "unit": "%"}, {"measurement": "Locomotor activity after α-MpT treatment, recorded as total movements", "setting": "[2]; hour 3 after α-MpT", "value": "141 ± 26", "unit": "%"}, {"measurement": "Locomotor activity after αMpT treatment, recorded as big movements", "setting": "[2]; hour 3 after α-MpT", "value": "184 ± 39", "unit": "%"}, {"measurement": "Locomotor activity after α-MpT treatment, recorded as total movements", "setting": "[2]; hour 4 after α-MpT", "value": "191 ± 45", "unit": "%"}, {"measurement": "Locomotor activity after αMpT treatment, recorded as big movements", "setting": "[2]; hour 4 after α-MpT", "value": "85 ± 34", "unit": "%"}, {"measurement": "Locomotor activity after α-MpT treatment, recorded as total movements", "setting": "[2]; hour 5 after α-MpT", "value": "229 ± 40", "unit": "%"}, {"measurement": "Locomotor activity after αMpT treatment, recorded as big movements", "setting": "[2]; hour 5 after α-MpT", "value": "171 ± 61", "unit": "%"}, {"measurement": "Locomotor activity after αMpT treatment, recorded as big movements", "setting": "[2]; hour 6 after α-MpT", "value": "65 ± 17", "unit": "%"}, {"measurement": "Locomotor activity after α-MpT treatment, recorded as total movements", "setting": "[2]; hour 7 after α-MpT", "value": "204 ± 7", "unit": "%"}, {"measurement": "Locomotor activity after αMpT treatment, recorded as big movements", "setting": "[2]; hour 7 after α-MpT", "value": "96 ± 29", "unit": "%"}, {"measurement": "Locomotor activity after α-MpT treatment, recorded as total movements", "setting": "[2]; hour 8 after α-MpT", "value": "131 ± 23", "unit": "%"}, {"measurement": "Locomotor activity after αMpT treatment, recorded as big movements", "setting": "[2]; hour 8 after α-MpT", "value": "91 ± 40", "unit": "%"}, {"measurement": "Locomotor activity after α-MpT treatment, recorded as total movements", "setting": "[2]; hour 9 after α-MpT", "value": "137 ± 21", "unit": "%"}, {"measurement": "Locomotor activity after αMpT treatment, recorded as big movements", "setting": "[2]; hour 9 after α-MpT", "value": "84 ± 23", "unit": "%"}, {"measurement": "Locomotor activity after α-MpT treatment, recorded as total movements", "setting": "[2]; hour 10 after α-MpT", "value": "116 ± 22", "unit": "%"}, {"measurement": "Locomotor activity after αMpT treatment, recorded as big movements", "setting": "[2]; hour 10 after α-MpT", "value": "29 ± 10", "unit": "%"}, {"measurement": "effect on hypokinetic syndrome, big movements, in words", "setting": "[2]; hypoxia group, ten hour observation", "value": "less effective"}, {"measurement": "level of activity (total movements) versus corresponding control group, in words", "setting": "[2]; hypoxic rats pretreated", "value": "much higher"}, {"measurement": "Locomotor activity after α-MpT treatment, recorded as total movements", "setting": "[3]; hour 1 after α-MpT 70 mg/Kg", "value": "68 ± 9", "unit": "%"}, {"measurement": "Locomotor activity after α-MpT treatment, recorded as big movements", "setting": "[3]; hour 1 after α-MpT 70 mg/Kg", "value": "70 ± 10", "unit": "%"}, {"measurement": "Locomotor activity after α-MpT treatment, recorded as total movements", "setting": "[3]; hour 2 after α-MpT 70 mg/Kg", "value": "95 ± 11", "unit": "%"}, {"measurement": "Locomotor activity after α-MpT treatment, recorded as big movements", "setting": "[3]; hour 2 after α-MpT 70 mg/Kg", "value": "91 ± 19", "unit": "%"}, {"measurement": "Locomotor activity after α-MpT treatment, recorded as total movements", "setting": "[3]; hour 3 after α-MpT 70 mg/Kg", "value": "126 ± 22", "unit": "%"}, {"measurement": "Locomotor activity after α-MpT treatment, recorded as big movements", "setting": "[3]; hour 3 after α-MpT 70 mg/Kg", "value": "85 ± 19", "unit": "%"}, {"measurement": "Locomotor activity after α-MpT treatment, recorded as total movements", "setting": "[3]; hour 4 after α-MpT 70 mg/Kg", "value": "118 ± 20", "unit": "%"}, {"measurement": "Locomotor activity after α-MpT treatment, recorded as big movements", "setting": "[3]; hour 4 after α-MpT 70 mg/Kg", "value": "88 ± 23", "unit": "%"}, {"measurement": "Locomotor activity after α-MpT treatment, recorded as total movements", "setting": "[3]; hour 5 after α-MpT 70 mg/Kg", "value": "83 ± 24", "unit": "%"}, {"measurement": "Locomotor activity after α-MpT treatment, recorded as big movements", "setting": "[3]; hour 5 after α-MpT 70 mg/Kg", "value": "87 ± 11", "unit": "%"}, {"measurement": "Locomotor activity after α-MpT treatment, recorded as total movements", "setting": "[3]; hour 6 after α-MpT 70 mg/Kg", "value": "78 ± 9", "unit": "%"}, {"measurement": "Locomotor activity after α-MpT treatment, recorded as big movements", "setting": "[3]; hour 6 after α-MpT 70 mg/Kg", "value": "67 ± 8", "unit": "%"}, {"measurement": "Locomotor activity after α-MpT treatment, recorded as total movements", "setting": "[3]; hour 7 after α-MpT 70 mg/Kg", "value": "56 ± 7", "unit": "%"}, {"measurement": "Locomotor activity after α-MpT treatment, recorded as big movements", "setting": "[3]; hour 7 after α-MpT 70 mg/Kg", "value": "62 ± 9", "unit": "%"}, {"measurement": "Locomotor activity after α-MpT treatment, recorded as total movements", "setting": "[3]; hour 8 after α-MpT 70 mg/Kg", "value": "185 ± 13", "unit": "%"}, {"measurement": "Locomotor activity after α-MpT treatment, recorded as big movements", "setting": "[3]; hour 8 after α-MpT 70 mg/Kg", "value": "70 ± 9", "unit": "%"}, {"measurement": "Locomotor activity after α-MpT treatment, recorded as total movements", "setting": "[3]; hour 9 after α-MpT 70 mg/Kg", "value": "111 ± 12", "unit": "%"}, {"measurement": "Locomotor activity after α-MpT treatment, recorded as big movements", "setting": "[3]; hour 9 after α-MpT 70 mg/Kg", "value": "132 ± 24", "unit": "%"}, {"measurement": "Locomotor activity after α-MpT treatment, recorded as total movements", "setting": "[3]; hour 10 after α-MpT 70 mg/Kg", "value": "61 ± 12", "unit": "%"}, {"measurement": "Locomotor activity after α-MpT treatment, recorded as big movements", "setting": "[3]; hour 10 after α-MpT 70 mg/Kg", "value": "54 ± 13", "unit": "%"}, {"measurement": "latency to locate platform, Session I Run 1", "setting": "[4]", "value": "42 ± 16", "unit": "s"}, {"measurement": "latency to locate platform, Session I Run 2", "setting": "[4]", "value": "40 ± 17", "unit": "s"}, {"measurement": "latency to locate platform, Session II Run 1", "setting": "[4]", "value": "42 ± 18", "unit": "s"}, {"measurement": "latency to locate platform, Session II Run 2", "setting": "[4]", "value": "35 ± 16", "unit": "s"}, {"measurement": "latency to locate platform, Session III Run 1", "setting": "[4]", "value": "32 ± 15", "unit": "s"}, {"measurement": "latency to locate platform, Session III Run 2", "setting": "[4]", "value": "8 ± 2", "unit": "s"}, {"measurement": "latency to locate platform, Session IV Run 1", "setting": "[4]", "value": "19 ± 6", "unit": "s"}, {"measurement": "latency to locate platform, Session IV Run 2", "setting": "[4]", "value": "12 ± 4", "unit": "s"}, {"measurement": "passive avoidance performance, in words", "setting": "[5]", "value": "showed no improvement"}]}]}
